# “And” between values parts separate entries of the source, which are not always exact repeats. Equal entries are not always repeated.
# Test system: kidney tissues of treated or untreated rats
# Assay: Real-time qRT-PCR of marker transcripts in kidney tissue panel, discovery stage (Table 22)
# Type: in vivo, rat
# Conditions: listed as Dox; for normalized Real Time PCR MMU09507_DB81_seg15: kidney; for H33998_DB71_seg19 normalized Real Time PCR / MUSCYCG1R_DB81_seg15-17 normalized Real Time PCR / RATLRFI_DB71_seg9 normalized Real Time PCR / RATRAB13X_DB71_seg11-13 normalized Real Time PCR / RNU24174_DB71_seg8 normalized Real Time PCR / W41270_DB81_seg11 normalized Real Time PCR / W64472_DB81_seg2 normalized Real Time PCR / W83813_DB81_seg27 normalized Real Time PCR / AA686189_DB71_seg6 normalized Real Time PCR expression / AI045075_DB71_seg6 normalized Real Time PCR expression / AI454051_DB71_seg0 normalized Real Time PCR expression / H31045_DB71_seg5 normalized Real Time PCR expression: rat kidney
# Protocol: Before RT preparation the RNA was treated with DNA-free (Ambion, cat. No. AM1906) DNase treatment and removal—according to manufacturer protocol. DNase procedure was repeated until no DNA is detected in a PCR reaction using the RNA samples.
# The mixture is then incubated for 5 min at 65° C. and then quickly chilled on ice. Thereafter, 20 μl of 5× SuperscriptII first strand buffer (Invitrogen, Cat. No. Y00146), 9.6 μl 0.1M DTT (Invitrogen, Cat. No. Y00147) and 160 units RNasin (Promega, Cat. No. N251A) are added, and the mixture is incubated for 10 min at 25° C., followed by further incubation at 42° C. for 2 min. […] The resulting cDNA is diluted 1:20 in TE buffer (10 mM Tris pH=8, 1 mM EDTA pH=8).
# cDNA (5 μl), prepared as described above, is used as a template in Real-Time PCR reactions using the SYBR Green I assay (PE Applied Biosystem) with specific primers in 100 nM concentration if not indicated otherwise and UNG Enzyme (Eurogentech or equal) Amplification is effected as follows: 50° C. for 2 min, 95° C. for 10 min, and then 40 cycles of 95° C. for 15 sec, followed by 60° C. for 1 min (if not indicated otherwise). Amplification step is followed by dissociation step. Detection is performed by using the PE Applied Biosystem SDS 7000. The cycle in which the reactions achieved a threshold level (Ct) of fluorescence is registered and is used to calculate the relative transcript quantity in the RT reactions. Non-detected samples are assigned Ct value of 41 and are calculated accordingly. The relative quantity is calculated using the equation Q=efficiencŷ-Ct. The efficiency of the PCR reaction is calculated from a standard curve, created by using serial dilutions of several reverse transcription (RT) reactions. To minimize inherent differences in the RT reaction, the resulting relative quantities are normalized to normalization factor calculated as follows: […]
# The relative quantity (Q) of each housekeeping gene in each sample is calculated as described above. In order to calculate the “relative Q relative to MED” each Q for each HSKP gene is divided by the median quantity of this gene in all panel samples. To finally achieve the normalization factor of each sample the geometric mean of all four “relative Q relative to MED” was calculated. The normalization factor was then used for further calculations.
# The markers of the present invention were tested with regard to their expression in a panel of kidney tissues samples from treated and control rats. Unless otherwise noted, all experimental data relates to the novel polynucleotides and proteins of the present invention, named according to the segment being tested (as expression was tested through RT-PCR as described). Tests were then performed as described in the “Materials and Experimental Procedures” section above.
# The qRT-PCR measurements were normalized according to each samples normalization factor as described in “RT Preparation and Real-Time qRT-PCR Analysis” and further multiplied by a constant factor for ease of viewing.
# [1] = day1, individual animals (F and M)
# [2] = day5, individual animals (F and M)
# [3] = day28, individual animals (F and M)
smiles,measurement,setting,value
COc1cccc2c1C(=O)c1c(O)c3c(c(O)c1C2=O)C[C@@](O)(C(=O)CO)C[C@@H]3O[C@H]1C[C@H](N)[C@H](O)[C@H](C)O1 [Doxorubicin],normalized Real Time PCR MMU09507_DB81_seg15,"female rats, day1",0.48 and 0.52 and 0.93
same,normalized Real Time PCR MMU09507_DB81_seg15,"female rats, day5",2.07 and 1.46 and 1.82
same,normalized Real Time PCR MMU09507_DB81_seg15,"female rats, day28",4.47 and 2.99 and 2.89
same,normalized Real Time PCR MMU09507_DB81_seg15,"male rats, day1",0.74 and 0.71 and 0.59
same,normalized Real Time PCR MMU09507_DB81_seg15,"male rats, day5",1.74 and 1.67
same,normalized Real Time PCR MMU09507_DB81_seg15,"male rats, day28",3.04 and 2.93 and 2.13
same,H33998_DB71_seg19 normalized Real Time PCR,[1],1.25 and 1.34 and 2.14 and 0.97 and 1.07 and 2.75
same,MUSCYCG1R_DB81_seg15-17 normalized Real Time PCR,[1],1.66 and 1.12 and 1.36 and 0.56 and 0.64 and 0.66
same,RATLRFI_DB71_seg9 normalized Real Time PCR,[1],0.25 and 0.21 and 0.31 and 0.46 and 0.48 and 0.24
same,RATRAB13X_DB71_seg11-13 normalized Real Time PCR,[1],1.1 and 0.9 and 1 and 0.88 and 1.09 and 0.86
same,RNU24174_DB71_seg8 normalized Real Time PCR,[1],0.29 and 0.35 and 0.31 and 0.48 and 0.49 and 0.36
same,W41270_DB81_seg11 normalized Real Time PCR,[1],2.24 and 1.2 and 1.56 and 1.74 and 0.95 and 0.91
same,W64472_DB81_seg2 normalized Real Time PCR,[1],1.58 and 1.09 and 1.15 and 0.86 and 0.77 and 0.56
same,W83813_DB81_seg27 normalized Real Time PCR,[1],2.9 and 1.56 and 2 and 0.68 and 0.78 and 0.64
same,AA686189_DB71_seg6 normalized Real Time PCR expression,"day1, individual animals",0.59 and 0.49 and 0.39 and 0.78 and 0.4 and 0.26
same,AI045075_DB71_seg6 normalized Real Time PCR expression,"day1, individual animals",1.12 and 1.21 and 0.78 and 0.61 and 0.64 and 3.12
same,AI454051_DB71_seg0 normalized Real Time PCR expression,"day1, individual animals",1.2 and 1.05 and 1.54 and 0.8 (2×) and 1.03
same,H31045_DB71_seg5 normalized Real Time PCR expression,"day1, individual animals",1.15 and 0.3 and 1.95 and 0.23 and 0.32 and 0.75
same,H33998_DB71_seg19 normalized Real Time PCR,[2],2.39 and 1.29 and 3.68 and 1.19 and 1.37
same,MUSCYCG1R_DB81_seg15-17 normalized Real Time PCR,[2],1.51 and 1.97 and 3.17 and 1.65 and 2
same,RATLRFI_DB71_seg9 normalized Real Time PCR,[2],0.46 and 0.29 and 0.18 and 0.47 and 0.25
same,RATRAB13X_DB71_seg11-13 normalized Real Time PCR,[2],1.17 and 1.16 and 0.94 and 0.7 and 0.83
same,RNU24174_DB71_seg8 normalized Real Time PCR,[2],0.83 and 0.59 and 0.63 and 1.08 and 0.87
same,W41270_DB81_seg11 normalized Real Time PCR,[2],1.71 and 1.37 and 2.13 and 1.64 and 1.35
same,W64472_DB81_seg2 normalized Real Time PCR,[2],1.97 and 1.36 and 2.36 and 3 and 2.54
same,W83813_DB81_seg27 normalized Real Time PCR,[2],2.28 and 1.99 and 2.9 and 1.3 and 1.41
same,AA686189_DB71_seg6 normalized Real Time PCR expression,"day5, individual animals",1.2 and 0.6 and 0.51 and 0.48 and 0.38
same,AI045075_DB71_seg6 normalized Real Time PCR expression,"day5, individual animals",0.93 (2×) and 2.05 and 0.76 and 0.57
same,AI454051_DB71_seg0 normalized Real Time PCR expression,"day5, individual animals",1.17 and 1.35 and 1.44 and 0.3 and 0.95
same,H31045_DB71_seg5 normalized Real Time PCR expression,"day5, individual animals",1.86 and 1.19 and 0.52 and 0.35 and 1.41
same,H33998_DB71_seg19 normalized Real Time PCR,[3],0.48 and 0.58 and 0.96 and 0.64 and 0.44 and 0.54
same,MUSCYCG1R_DB81_seg15-17 normalized Real Time PCR,[3],1.07 and 1.52 and 1.26 and 0.99 and 0.98 and 1.28
same,RATLRFI_DB71_seg9 normalized Real Time PCR,[3],0.72 and 0.4 and 1.47 and 8.34 and 0.53 and 1.08

# — patent US20160177395A1, “BIOMARKERS FOR THE PREDICTION OF RENAL INJURY” (priority 2007, published 2016)
